Target: T1, recombinant human GST-SYK (Homo sapiens, UniProt P43405)
T1 construct: purchased Carna Biosciences 08-176
Experiment: Homogeneous Time-Resolved Fluorescence (HTRF) assay for the recombinant human Syk enzyme
Assay type: biochemical
Details: HTRF assay, recombinant human GST-SYK; IC50 given as class symbols; read-out: rhSYK Activity
Procedure: Homogeneous Time-Resolved Fluorescence (HTRF) Assay for the Recombinant Human Syk Enzyme
A recombinant GST-hSYK fusion protein was used to measure potency of compounds to inhibit human Syk activity. The recombinant human GST-SYK (Carna Biosciences #08-176) ([…]) was incubated with various concentrations of the inhibitor diluted in DMSO (0.1% final concentration) for 10 minutes at room temperature in 15 mM Tris-HCl (pH 7.5), 0.01% tween 20, 2 mM DTT in 384 well plate format. To initiate the reaction the biotinylated substrate peptide (250 nM final concentration) that contains the phosphorylation site for Syk was added with magnesium (5 mM final concentration) and ATP (25 μM final concentration). Final volume of the reaction was 10 μL. Phosphorylation of the peptide was allowed to proceed for 45′ at room temperature. To quench the reaction and detect the phosphorylated product, 2 nM of a Europium-anti-phosphotyrosine antibody (Perkin Elmer #AD0161) and 70 nM SA-APC (Perkin-Elmer #CR130-100) were added together in 15 mM Tris pH 7.5, 40 mM EDTA, 0.01% tween 20. Final volume of the quenching solution was 10 μL. The resulting HTRF signal was measured after 30 minutes on an EnVision (Perkin-Elmer) reader using a time-resolved fluorescence protocol.

Q: Which IC50 does the source give for Cc1cc(Nc2nccc(C(F)(F)F)n2)cc(-c2ccc(C(=O)NCC(O)CCCl)nc2)c1 (centres unmarked) [Example 16.35, N-(4-chloro-2-hydroxybutyl)-5-(3-methyl-5-{[4-(trifluoromethyl)pyrimidin-2-yl]amino}phenyl)pyridine-2-carboxamide] here?
A: 0.1 to 1 µM

Q: For CNC(=O)CCNc1ccc(-c2cc(C)cc(Nc3nccc(C(F)(F)F)n3)c2)cn1 [Example 7.62, N-methyl-N~3~-[5-(3-methyl-5-{[4-(trifluoromethyl)pyrimidin-2-yl]amino}phenyl)pyridin-2-yl]-beta-alaninamide], which IC50 is on record?
A: < 0.1 µM

Q: How did the IC50 turn out when Cc1cc(Nc2nccc(C(F)(F)F)n2)cc(-c2ccc(N[C@H](Cc3ccccc3)C(=O)O)nc2)c1 [Example 7.96, N-[5-(3-methyl-5-{[4-(trifluoromethyl)pyrimidin-2-yl]amino}phenyl)pyridin-2-yl]-D-phenylalanine] was run?
A: < 0.1 µM

Q: With Cc1cc(Nc2nccc(C(F)(F)F)n2)cc(-c2ccc(C(O)(CO)CO)nc2)c1 [Example 9.33, 2-[5-(3-methyl-5-{[4-(trifluoromethyl)pyrimidin-2-yl]amino}phenyl)pyridin-2-yl]propane-1,2,3-triol] as the compound, how does the IC50 read?
A: < 0.1 µM

Q: For Cc1cc(Nc2nccc(C(F)(F)F)n2)cc(-c2ccc(C(=O)NS(N)(=O)=O)nc2)c1 [Example 16.2], which IC50 is on record?
A: < 0.1 µM

Q: How did the IC50 turn out when CCOC(=O)CCc1cc(-c2cc(C)cc(Nc3nccc(C4CC4)n3)c2)ccn1 [Example 2.136, ethyl 3-(4-{3-[(4-cyclopropylpyrimidin-2-yl)amino]-5-methylphenyl}pyridin-2-yl)propanoate] was run?
A: 0.1 to 1 µM

Q: With Cc1cc(Nc2nccc(C(F)(F)F)n2)cc(-c2ccc(C(C)(O)C(F)(F)F)nc2)c1 (centres unmarked) [Example 2.115, 1,1,1-trifluoro-2-[5-(3-methyl-5-{[4-(trifluoromethyl)pyrimidin-2-yl]amino}phenyl)pyridin-2-yl]propan-2-ol] as the compound, how does the IC50 read?
A: 0.1 to 1 µM

Q: With Cc1cc(Nc2nccc(C(F)(F)F)n2)cc(-c2ccc(N[C@@H](CC(N)=O)C(=O)O)nc2)c1 [Example 7.94, N~2~-[5-(3-methyl-5-{[4-(trifluoromethyl)pyrimidin-2-yl]amino}phenyl)pyridin-2-yl]-L-asparagine] as the compound, how does the IC50 read?
A: < 0.1 µM

Q: With Cc1cc(Nc2nccc(C(F)(F)F)n2)cc(-c2ccc(NS(=O)(=O)N3CCCCC3)nc2)c1 [Example 2.62, N-[5-(3-methyl-5-{[4-(trifluoromethyl)pyrimidin-2-yl]amino}phenyl)pyridin-2-yl]piperidine-1-sulfonamide] as the compound, how does the IC50 read?
A: 0.1 to 1 µM

Q: For COc1ccnc(Nc2cc(C)cc(-c3ccc(N[C@H]4CC[C@H](C(=O)O)CC4)nc3)c2)n1 [Example 2.105, trans-4-[(5-{3-[(4-methoxypyrimidin-2-yl)amino]-5-methylphenyl}pyridin-2-yl)amino]cyclohexanecarboxylic acid], which IC50 is on record?
A: < 0.1 µM

Q: With CCOC(=O)CCc1ccnc(-c2cc(C)cc(Nc3nccc(C)n3)c2)c1 [Example 2.33, ethyl 3-(2-{3-methyl-5-[(4-methylpyrimidin-2-yl)amino]phenyl}pyridin-4-yl)propanoate] as the compound, how does the IC50 read?
A: 0.1 to 1 µM

Q: How did the IC50 turn out when CCNC(=O)Nc1cc(Nc2nccc(C(F)(F)F)n2)cc(-c2cccnc2)c1 [Example 6.3, 1-ethyl-3-(3-pyridin-3-yl-5-{[4-(trifluoromethyl)pyrimidin-2-yl]amino}phenyl)urea] was run?
A: < 0.1 µM

Q: For CCCCOC(=O)C1CCC(C(C)(O)c2ccc(-c3cc(C)cc(Nc4nccc(C(F)F)n4)c3)cn2)CC1 (single isomer, unassigned) [Example 9.51, butyl trans-4-{(1R or 1S)-1-[5-(3-{[4-(difluoromethyl)pyrimidin-2-yl]amino}-5-methylphenyl)pyridin-2-yl]-1-hydroxyethyl}cyclohexanecarboxylate], which IC50 is on record?
A: 0.1 to 1 µM

Q: With Cc1cc(Nc2nccc(C(F)(F)F)n2)cc(-c2ccc(CCC(=O)O)nc2)c1 [Example 13.2, 3-[5-(3-Methyl-5-{[4-(trifluoromethyl)pyrimidin-2-yl]amino}phenyl)pyridin-2-yl]propanoic acid] as the compound, how does the IC50 read?
A: < 0.1 µM

Q: For Cc1cc(Nc2nccc(C(F)(F)F)n2)cc(-c2ccc(NCC(C)(C)O)nc2)c1 [Example 7.44, 2-methyl-1-{[5-(3-methyl-5-{[4-(trifluoromethyl)pyrimidin-2-yl]amino}phenyl)pyridin-2-yl]amino}propan-2-ol], which IC50 is on record?
A: < 0.1 µM

Q: With Cc1cc(Nc2nccc(C(F)(F)F)n2)cc(-c2ccc(N)c(O)n2)c1 [Example 2.10, 3-amino-6-(3-methyl-5-{[4-(trifluoromethyl)pyrimidin-2-yl]amino}phenyl)pyridin-2-ol] as the compound, how does the IC50 read?
A: < 0.1 µM

Q: For Cc1cc(Nc2nccc(C(F)(F)F)n2)cc(-c2ccc(C(=O)N3CCNC(=O)CC3)nc2)c1 [Example 16.19, 1-{[5-(3-methyl-5-{[4-(trifluoromethyl)pyrimidin-2-yl]amino}phenyl)pyridin-2-yl]carbonyl}-1,4-diazepan-5-one], which IC50 is on record?
A: < 0.1 µM

Q: With Cc1cc(Nc2nccc(C(F)(F)F)n2)cc(-c2ccc(C(=O)NC(C)CO)nc2)c1 (centres unmarked) [Example 16.7, N-(2-hydroxy-1-methylethyl)-5-(3-methyl-5-{[4-(trifluoromethyl)pyrimidin-2-yl]amino}phenyl)pyridine-2-carboxamide] as the compound, how does the IC50 read?
A: < 0.1 µM

Q: For CNC(=O)C1CCN(c2cc(-c3cc(C)cc(Nc4nccc(C(F)(F)F)n4)c3)ccn2)CC1 [Example 15.58, N-methyl-1-[4-(3-methyl-5-{[4-(trifluoromethyl)pyrimidin-2-yl]amino}phenyl)pyridin-2-yl]piperidine-4-carboxamide], which IC50 is on record?
A: 0.1 to 1 µM

Q: For Cc1cc(Nc2nccc(C(F)(F)F)n2)cc(-c2ccc(NC3COC3)nc2)c1 [Example 7.47, N-{3-methyl-5-[6-(oxetan-3-ylamino)pyridin-3-yl]phenyl}-4-(trifluoromethyl)pyrimidin-2-amine], which IC50 is on record?
A: < 0.1 µM

Q: Cc1cc(Nc2nccc(C)n2)cc(-c2ccnc(CCC(=O)O)c2)c1 [Example 2.135, 3-(4-{3-methyl-5-[(4-methylpyrimidin-2-yl)amino]phenyl}pyridin-2-yl)propanoic acid] was tested. Which IC50 did it give?
A: < 0.1 µM

Q: With CCOC(=O)C1CCC(O)(c2ccc(-c3cc(C)cc(Nc4nccc(C)n4)c3)cn2)CC1(C)C (centres unmarked) [Example 9.40, ethyl 4-hydroxy-2,2-dimethyl-4-(5-{3-methyl-5-[(4-methylpyrimidin-2-yl)amino]phenyl}pyridin-2-yl)cyclohexanecarboxylate] as the compound, how does the IC50 read?
A: 0.1 to 1 µM

Q: For Cc1cc(Nc2nccc(C(F)(F)F)n2)cc(-c2ccnc(N3CCC(C(=O)O)CC3)c2)c1 [Example 15.87, 1-[4-(3-methyl-5-{[4-(trifluoromethyl)pyrimidin-2-yl]amino}phenyl)pyridin-2-yl]piperidine-4-carboxylic acid], which IC50 is on record?
A: < 0.1 µM

Q: How did the IC50 turn out when Cc1cc(Nc2nccc(C(F)(F)F)n2)cc(-c2ccc(C(=O)N(C)CC(N)=O)nc2)c1 [Example 16.62, N-(2-amino-2-oxoethyl)-N-methyl-5-(3-methyl-5-{[4-(trifluoromethyl)pyrimidin-2-yl]amino}phenyl)pyridine-2-carboxamide] was run?
A: < 0.1 µM

Q: With CCCCOC(=O)C1CCC(C(C)(O)c2ccc(-c3cc(C)cc(Nc4ncc(Cl)c(C)n4)c3)cn2)CC1 (single isomer, unassigned) [Example 9.53, butyl trans-4-[(1R or 1S)-1-(5-{3-[(5-chloro-4-methylpyrimidin-2-yl)amino]-5-methylphenyl}pyridin-2-yl)-1-hydroxyethyl]cyclohexanecarboxylate] as the compound, how does the IC50 read?
A: 0.1 to 1 µM

Q: With CCC(C)(C#N)Nc1ccc(-c2cc(C)cc(Nc3nccc(C(F)(F)F)n3)c2)cn1 (centres unmarked) [Example 18.4, 2-methyl-2-{[5-(3-methyl-5-{[4-(trifluoromethyl)pyrimidin-2-yl]amino}phenyl)pyridin-2-yl]amino}butanenitrile] as the compound, how does the IC50 read?
A: 0.1 to 1 µM

Q: Cc1ccc(S(=O)(=O)Nc2ccc(-c3cccc(Nc4nccc(C(F)(F)F)n4)c3)nc2)cc1 [Example 2.9, 4-methyl-N-[6-(3-{[4-(trifluoromethyl)pyrimidin-2-yl]amino}phenyl)pyridin-3-yl]benzenesulfonamide] was tested. Which IC50 did it give?
A: 0.1 to 1 µM

Q: For Cc1cc(Nc2nccc(C(F)(F)F)n2)cc(-c2ccnc(N3CCCC3C(N)=O)c2)c1 (centres unmarked) [Example 15.55, 1-[4-(3-methyl-5-{[4-(trifluoromethyl)pyrimidin-2-yl]amino}phenyl)pyridin-2-yl] prolinamide], which IC50 is on record?
A: < 0.1 µM

Q: With Cc1cc(Nc2nccc(C)n2)cc(-c2ccc([C@]3(O)CC[C@H](C(=O)O)CC3)nc2)c1 [Example 9.38, trans-4-hydroxy-4-(5-{3-methyl-5-[(4-methylpyrimidin-2-yl)amino]phenyl}pyridin-2-yl)cyclohexanecarboxylic acid] as the compound, how does the IC50 read?
A: < 0.1 µM

Q: How did the IC50 turn out when Cc1cc(Nc2nccc(C(F)(F)F)n2)cc(-c2ccc(N[C@H](C)C(=O)O)nc2)c1 [Example 7.154, N-[5-(3-methyl-5-{[4-(trifluoromethyl)pyrimidin-2-yl]amino}phenyl)pyridin-2-yl]-D-alanine] was run?
A: < 0.1 µM

Q: With Cc1cc(Nc2nccc(C(F)(F)F)n2)cc(-c2ccnc(N3CCCC4(CCCCO4)C3)c2)c1 (centres unmarked) [Example 15.26, N-{3-methyl-5-[2-(1-oxa-8-azaspiro[5.5]undec-8-yl)pyridin-4-yl]phenyl}-4-(trifluoromethyl)pyrimidin-2-amine] as the compound, how does the IC50 read?
A: 1 to 10 µM

Q: For Cc1cc(Nc2nccc(C(F)(F)F)n2)cc(-c2ccnc(N[C@H]3CCC(=O)NC3)c2)c1 [Example 15.67, (5S)-5-{[4-(3-methyl-5-{[4-(trifluoromethyl)pyrimidin-2-yl]amino}phenyl)pyridin-2-yl]amino}piperidin-2-one], which IC50 is on record?
A: < 0.1 µM

— patent US9376418B2, “Substituted pyridine spleen tyrosine kinase (SYK) inhibitors” (Merck Sharp & Dohme Corp., priority 2012, dated 2016)
